Source: PubChem BioAssay (NCI)
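Values below derive from 48-hour exposures of cells grown in 96-well plates, with endpoints linearly interpolated between the two concentrations bracketing the appropriate inhibition level. GI50 = concentration required for 50% inhibition of growth. The concentration for full growth arrest is given as TGI.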

What follows are compounds tested on MDA-MB-231 breast (assay: growth of human tumour cells (NCI), 48 h).

Row | SMILES | TGI [µM] | GI50 [µM]
1 | COc1cc(/C=C/c2ccc(OC)c(OC)c2)cc(OC)c1 | 52 | –
2 | CC1(C)[C@@H](OC(N)=O)[C@H]2O[C@H]2[C@]2(C=O)[C@H]3CC[C@]4(C)[C@@H](c5ccc(=O)oc5)[C@@H](Cl)C[C@]4(O)C3=CC[C@@H]12 | 0.0556 | 0.0109
3 | CCCCON(OC(=O)c1ccc2ccc3cccc4ccc1c2c34)C(C)=O | 40.2 | 18.9
4 | Clc1ccc(C=Nc2ccc3c(c2)Cc2ccccc2-3)c(Cl)c1 | > 100 | –
5 | CN(C)CCN1C(=O)c2ccc3c4c(ccc(c24)C1=O)C(=O)N(CCN=C=S)C3=O | 0.352 | 0.0942
6 | COc1ccc(/C=C/c2cc(OC)cc(=O)o2)cc1 | > 100 | –
7 | O=C(/C=C\c1ccc(NCc2ccc(C(=O)O)cc2)cc1)CCl | 27 | 12.7
8 | COc1cccc2c(=O)c3c(sc12)c(N1CCNCC1)nc1ccccc13 | 3.32 | 1.7
9 | COc1cc2[nH]c(C(=O)c3cc(OC)c(OC)c(OC)c3)c(N)c2cc1C#CC1CC1 | > 100 | 3.9
10 | O=c1cc(NC2CCN(CCCc3ccccc3)CC2)c2cc(Cl)ccc2o1 | 22.9 | 9.42
11 | CC(=O)N[C@H]1CSSC[C@@H](C(N)=O)NC(=O)[C@H](C(C)C)NC(=O)[C@H](C)NC(=O)[C@H](Cc2cnc[nH]2)NC1=O | > 100 | > 100
12 | O=C1CC2c3ccccc3CCC2c2ccccc21 (stereo not drawn) | 80 | –
13 | O=C1Nc2ccc(F)cc2/C1=C/c1ccc[nH]1 | > 25 | 7.65
14 | CCCCCCCCCCCCCCCCCCOc1ccccc1CC(=O)OCC[N+]1(C)CCCC1 | 3.55 | 1.7
15 | CC(=O)C(=CN1CCN(C(=O)c2ccco2)C1=S)C(C)=O | 6.96 | 2.62

Each compound was assayed on SF-539 CNS (assay: growth of human tumour cells (NCI), 48 h).

Row | SMILES | GI50 [µM] | TGI [µM]
16 | O=S(=O)(Nc1cc(Sc2cccc3cccnc23)c(O)c2ccccc12)c1ccccc1 | 0.957 | 5.13
17 | CN(C)C(=O)[C@H](O)[C@H](Cc1ccccc1)NC(=O)c1cc2cc(Cl)ccc2[nH]1 | 20.2 | 43.3
18 | CC(C)(C[C@H]1CN(S(=O)(=O)c2cccc(C(F)(F)F)c2)c2cc(-c3cc(F)cc(OC(F)F)c3)ccc2O1)C(=O)O | 5.41 | 19.1
19 | Cc1ccc(-c2nc3ccc(Cl)cc3c(=O)n2N2C(=O)CSC2c2ccccc2Cl)cc1 (stereo not drawn) | > 100 | > 100
20 | O=C(O)C1C(Br)(c2ccccc2)C1(Br)c1ccccc1 (stereo not drawn) | – | > 100
21 | C#Cc1c(I)n(C2OC(CO[Si](C)(C)C(C)(C)C)C3OC(C)(C)OC32)c(=O)[nH]c1=O (stereo not drawn) | 16.6 | 31.4
22 | ClCC[N+]12CC[N+](CCCl)(CC1)C2 | – | > 100
23 | COc1cc(C(=O)c2cc(C)c3[nH]c4ccc(C)cc4c3c2C)cc(OC)c1OC | < 0.01 | < 0.01
24 | C=C1C(=O)OC2/C=C(\COC(C)=O)CCC(OC(C)=O)C3=CC(OC3=O)C12 (stereo not drawn) | – | 16.4
25 | Cc1ccc2[nH]c(O)c(N=Nc3ccc(S(N)(=O)=O)cc3)c2c1 | 8.73 | > 25
26 | C/C(N=NC(=S)N(C)C)=C1\C=CC=CN1O | < 0.1 | > 100
27 | C=C1CCC(CC[C@@H]2CC[C@]3(OC2)O[C@@]2(O)CC[C@]3(C)OC2(C)C)C(C)(C)[C@H]1C/C=C1/C(=O)OC[C@@H]1O (stereo partly drawn) | – | 9.18
28 | C[C@]12CC[C@@H]3c4cc(OCC(F)(F)F)c(O)cc4/C(=N/O)C[C@H]3[C@@H]1CC[C@@H]2O | – | 0.0725
29 | COc1cc(/C=C/c2ccc(OC)c(OC)c2)cc(OC)c1 | – | > 100
30 | CC1(C)[C@@H](OC(N)=O)[C@H]2O[C@H]2[C@]2(C=O)[C@H]3CC[C@]4(C)[C@@H](c5ccc(=O)oc5)[C@@H](Cl)C[C@]4(O)C3=CC[C@@H]12 | 0.00439 | 0.00833
31 | CCCCON(OC(=O)c1ccc2ccc3cccc4ccc1c2c34)C(C)=O | 18.5 | 35.6
32 | Clc1ccc(C=Nc2ccc3c(c2)Cc2ccccc2-3)c(Cl)c1 | – | > 100
33 | CN(C)CCN1C(=O)c2ccc3c4c(ccc(c24)C1=O)C(=O)N(CCN=C=S)C3=O | 0.0482 | 0.212
34 | COc1ccc(/C=C/c2cc(OC)cc(=O)o2)cc1 | – | 46.1
35 | O=C(/C=C\c1ccc(NCc2ccc(C(=O)O)cc2)cc1)CCl | 15.5 | 29.3
36 | COc1cccc2c(=O)c3c(sc12)c(N1CCNCC1)nc1ccccc13 | 1.75 | 3.21
37 | COc1cc2[nH]c(C(=O)c3cc(OC)c(OC)c(OC)c3)c(N)c2cc1C#CC1CC1 | 0.815 | 4.77
38 | O=c1cc(NC2CCN(CCCc3ccccc3)CC2)c2cc(Cl)ccc2o1 | 12.3 | 25.3
39 | CC(=O)N[C@H]1CSSC[C@@H](C(N)=O)NC(=O)[C@H](C(C)C)NC(=O)[C@H](C)NC(=O)[C@H](Cc2cnc[nH]2)NC1=O | > 100 | > 100
40 | O=C1CC2c3ccccc3CCC2c2ccccc21 (stereo not drawn) | – | 53.3
41 | O=C1Nc2ccc(F)cc2/C1=C/c1ccc[nH]1 | > 25 | > 25
42 | CCCCCCCCCCCCCCCCCCOc1ccccc1CC(=O)OCC[N+]1(C)CCCC1 | 1.86 | 3.62

These compounds were tested on KM12 colon (assay: growth of human tumour cells (NCI), 48 h).

Row | SMILES | GI50 [µM] | TGI [µM]
43 | O=S(=O)(Nc1cc(Sc2cccc3cccnc23)c(O)c2ccccc12)c1ccccc1 | 2.03 | 16.5
44 | CN(C)C(=O)[C@H](O)[C@H](Cc1ccccc1)NC(=O)c1cc2cc(Cl)ccc2[nH]1 | 27.2 | > 87.7
45 | CC(C)(C[C@H]1CN(S(=O)(=O)c2cccc(C(F)(F)F)c2)c2cc(-c3cc(F)cc(OC(F)F)c3)ccc2O1)C(=O)O | 4.38 | 16.4
46 | Cc1ccc(-c2nc3ccc(Cl)cc3c(=O)n2N2C(=O)CSC2c2ccccc2Cl)cc1 (stereo not drawn) | > 100 | > 100
47 | O=C(O)C1C(Br)(c2ccccc2)C1(Br)c1ccccc1 (stereo not drawn) | – | > 100
48 | C#Cc1c(I)n(C2OC(CO[Si](C)(C)C(C)(C)C)C3OC(C)(C)OC32)c(=O)[nH]c1=O (stereo not drawn) | 16.9 | 35.6
49 | ClCC[N+]12CC[N+](CCCl)(CC1)C2 | – | > 100
50 | COc1cc(C(=O)c2cc(C)c3[nH]c4ccc(C)cc4c3c2C)cc(OC)c1OC | < 0.01 | > 21.6
51 | C=C1C(=O)OC2/C=C(\COC(C)=O)CCC(OC(C)=O)C3=CC(OC3=O)C12 (stereo not drawn) | – | 22.1
52 | Cc1ccc2[nH]c(O)c(N=Nc3ccc(S(N)(=O)=O)cc3)c2c1 | 4.17 | > 25
53 | C/C(N=NC(=S)N(C)C)=C1\C=CC=CN1O | – | > 100
54 | C=C1CCC(CC[C@@H]2CC[C@]3(OC2)O[C@@]2(O)CC[C@]3(C)OC2(C)C)C(C)(C)[C@H]1C/C=C1/C(=O)OC[C@@H]1O (stereo partly drawn) | – | 6.35
55 | C[C@]12CC[C@@H]3c4cc(OCC(F)(F)F)c(O)cc4/C(=N/O)C[C@H]3[C@@H]1CC[C@@H]2O | – | 11.2
56 | COc1cc(/C=C/c2ccc(OC)c(OC)c2)cc(OC)c1 | – | 40.6
57 | CC1(C)[C@@H](OC(N)=O)[C@H]2O[C@H]2[C@]2(C=O)[C@H]3CC[C@]4(C)[C@@H](c5ccc(=O)oc5)[C@@H](Cl)C[C@]4(O)C3=CC[C@@H]12 | 0.00806 | 0.0253
58 | CCCCON(OC(=O)c1ccc2ccc3cccc4ccc1c2c34)C(C)=O | 28.8 | > 100
59 | Clc1ccc(C=Nc2ccc3c(c2)Cc2ccccc2-3)c(Cl)c1 | – | > 100
60 | CN(C)CCN1C(=O)c2ccc3c4c(ccc(c24)C1=O)C(=O)N(CCN=C=S)C3=O | 0.0415 | 0.173
61 | COc1ccc(/C=C/c2cc(OC)cc(=O)o2)cc1 | – | > 100
62 | O=C(/C=C\c1ccc(NCc2ccc(C(=O)O)cc2)cc1)CCl | 17 | 32
63 | COc1cccc2c(=O)c3c(sc12)c(N1CCNCC1)nc1ccccc13 | 1.79 | 3.41
64 | COc1cc2[nH]c(C(=O)c3cc(OC)c(OC)c(OC)c3)c(N)c2cc1C#CC1CC1 | 2.51 | > 100
65 | O=c1cc(NC2CCN(CCCc3ccccc3)CC2)c2cc(Cl)ccc2o1 | 12.5 | 25
66 | CC(=O)N[C@H]1CSSC[C@@H](C(N)=O)NC(=O)[C@H](C(C)C)NC(=O)[C@H](C)NC(=O)[C@H](Cc2cnc[nH]2)NC1=O | > 100 | > 100
67 | O=C1CC2c3ccccc3CCC2c2ccccc21 (stereo not drawn) | – | 26.8
68 | O=C1Nc2ccc(F)cc2/C1=C/c1ccc[nH]1 | 0.787 | > 25
